Assay results from patent publication US20250386825A1, “Formulation for Applying to Vegetation” (Okipa Ltd, priority 2022, published 2025).
Read-outs that look alike come from different tables or passages of the source.

Tested on: potato leaves
Details: for damage on Aug. 8, 2022 (rating score) / damage on Aug. 16, 2022 (rating score) / damage on Aug. 22, 2022 (rating score): treatment on Aug. 5, 2022, Braunschweig, score 0-10, * p < 0.05 vs untreated
Description: In addition to the direct control of weeds in arable farming and on non-crop land, the use of sodium saccharin for desiccation of potatoes was examined. Thus, the following variants were tested in a field test (soil type: sandy loam): (a) untreated, (b) 160 g/l and (c) 320 g/l sodium saccharin. In this example, the addition of an additive was deliberately avoided in order to assess the specific effect of sodium saccharin. The experimental design was a fully randomized block design with 3 replicates and a plot size of 2.25 m^2.
In each case, a row of potatoes 3 m in length was applied using a 5 l hand-held sprayer (®Gloria) with a conventional annular nozzle at a pressure of 3-4 bar. As a result, the degree of damage was recorded in the form of the following rating score.
Score (damage) of the potato leaves after treatment with Sodium saccharin (treatment on Aug. 5, 2022, Braunschweig, conventional cultivation)

SMILES: O=C1NS(=O)(=O)c2ccccc21.[Na] [Sodium saccharin, sodium saccharin]
- damage on Aug. 8, 2022 (rating score) (160 g/l, no additive): 1.3*
- damage on Aug. 16, 2022 (rating score) (160 g/l, no additive): 5.3*
- damage on Aug. 22, 2022 (rating score) (160 g/l, no additive): 8.3*
- damage on Aug. 8, 2022 (rating score) (320 g/l, no additive): 3.3*
- damage on Aug. 16, 2022 (rating score) (320 g/l, no additive): 7.7*
- damage on Aug. 22, 2022 (rating score) (320 g/l, no additive): 9.3*
- desiccation of potato leaves (trend in words) (field test, 160 g/l and 320 g/l, no additive): sufficiently desiccated
- desiccation of potato leaves (in words) (low concentration (160 g/l), after 17 days): sufficient desiccation
